# Assay results taken from patent US20060104985A1, “Dengue virus infection inhibitor” (priority 2002, published 2006).
# Key:
# [1] = tested on: infection of K562 cells with dengue virus; test: Virus infection test of K562 cells with oligosaccharide-pretreated dengue virus, antigen positive cells by flow cytometer; format: cell-based; conditions: virus pretreated with oligosaccharide at 28° C. for 30 minutes, infection at 37° C. for 2 hours
# Method: In any cases, 1 mM stock solution was prepared with sterile PBS(−). This solution was appropriately diluted and used for the infection inhibition test.
# Dilution was carried out with serum-free RPMI medium (SF-RPMI) containing 0.2% BSA so as to give a final virus concentration of 3×105 FFU (focus forming unit)/sample, and the solution was stirred well and placed on ice.
# To 630 μl (virus volume per 1 sample) of the dengue virus solution prepared in (2) described above, an equivalent amount of a diluted solution containing an oligosaccharide was added, stirred well, and incubated at 28° C. for 30 minutes. This solution was used as a pretreated virus solution.
# In addition, as a negative control, the one obtained by mixing PBS(−) with the virus solution was used.
# After K562 cells were washed once with SF-RPMI, the cells were prepared at 1×10^6 cells/ml with 0.1% BSA-SF-RPMI. This cell suspension was dispensed in 100 μl aliquots into tubes. Thereto was added the pretreated virus solution, stirred gently, and infection of cells was carried out at 37° C. for 2 hours. During this time, the solution in the tube was gently stirred every 20 minutes. After the solution was centrifuged at 3,400 rpm for 3 minutes, the virus solution was removed, and the cells were washed 3 times with 0.1% BSA-SF-RPMI. To the cell pellet, 2 ml of RPMI medium containing 2% serum (2% FCS-RPMI) was added, and suspended. […]
# dengue virus infection = conditions: rhesus monkeys; cited from earlier work
# [2] = tested on: binding of dengue virus to K562 cells; test: Inhibition of binding of dengue virus to K562 cell surface, flow cytometer (Example 2); format: cell-based
# Method: After K562 cells were cultured until confluent, the cells were dispensed into a microtube to be 2×10^5 cells/0.1 ml. After this microtube was centrifuged at 4° C. for 2 minutes at 10,000 rpm, the obtained cell pellet was washed once with 1 ml of PBS containing 0.1% BSA. After a dengue virus solution (2,000 units/ml) and PG (0, 100, 200 or 500 μM) or GA1 (500 μM), which is a reference glycolipid, were preincubated in PBS containing 0.1% BSA at 4° C. for 1 hour, 100 μl of each of the solutions was added to K562 cells, and the virus was allowed to bind to the cell at 4° C. for 1 hour. Incidentally, as virus(−), only PBS containing 0.1% BSA was added in the same amount. After the reaction, the cells were washed 3 times with 1 ml of chilled PBS(−), 100 μl of a solution of human anti-flavivirus antiserum (lot No. 1), which had been diluted to 200-fold, was added, respectively, as a primary antibody, well suspended, and reacted at 4° C. for 30 minutes. The cells were washed 3 times with 1 ml of chilled PBS(−), and 100 μl of a solution of a FITC-labeled goat anti-human IgG (Zymed), which had been diluted to 50-fold, was added, respectively, as a secondary antibody and shielded from light. Then, they were reacted at 4° C. for 30 minutes. […]
# [3] = tested on: binding of dengue virus to K562 cells; test: Inhibitory activity on binding of dengue virus to K562 cell surface, flow cytometer (Example 3); format: cell-based
# Method: After K562 cells were cultured until confluent, the cells were dispensed into a microtube to be 4×10^5 cells/0.1 ml. After this microtube was centrifuged at 4° C. for 3 minutes at 3,500 rpm, the obtained cell pellet was washed once with 1 ml of PBS containing 0.1% BSA. After it was further centrifuged at 4° C. for 3 minutes at 3,500 rpm, a dengue virus stock solution was diluted with PBS containing 0.1% BSA to the concentrations of 5,000 units/ml, 2,000 units/ml, 1,000 units/ml, and 500 units/ml, respectively. Then, 100 μl of each of the solutions was added to the K562 cells, and reacted at 4° C. for 1 hour.
# Incidentally, as virus(−), a solution to which only PBS containing 0.1% BSA was added in the same amount was used.
# After the reaction, the cells were washed 3 times with 1 ml of chilled PBS(−), 100 μl of a solution of human anti-flavivirus antiserum (lot No. 1), which had been diluted to 200-fold, was added, respectively, as a primary antibody, well suspended, and reacted at 4° C. for 30 minutes. […]
# K562 cells (1×10^5 cells) were seeded on a 24-well culture plate, and the total volume was made up to 1 ml with RPMI medium. […] The solution was transferred to a microtube, and virus binding was evaluated by the method described in (1).
# [4] = tested on: dengue virus (D2Th7 strain); test: TLC/virus-binding assay of glycolipids; conditions: HPLC fractions of the neutral glycolipid fraction of mosquito-derived C6/36 cells
# Method: The neutral glycolipid fractions I to IV obtained in the foregoing (c) (10 μl each), and as a reference standard, LacCer (1 μl), CTH (2 μl), paragloboside (PG: Galβ1-4GlcNAcβ1-3Galβ1-4Glcβ1-1′Cer) (2 μl), GA1 (Galβ1-3GalNAcβ1-4Galβ1-4Glcβ1-1′Cer) (2 μl), globoside (GalNAcβ1-3Galα1-4Galβ1-4Glcβ1-1′Cer) (2 μl) were spotted on TLC plates (Polygram Sil G), developed with acetone once, and developed with CHCl3/MeOH/12 mM MgCl2 (50/40/10, by vol). Then, orcinol reagent was sprayed and the plate was heated at 110° C., whereby color reaction was developed. With regard to the neutral glycolipid fractions I to IV, TLC/virus-binding assay was carried out by the method described above.
# The neutral glycolipid fraction II-2 (10 μl) obtained by the foregoing method described in (1), PI (10 μl), PG (2 μl) and globoside (1 μl) were spotted on a TLC plate (Polygram Sil G), developed with acetone once, and developed with CHCl3/MeOH/12 mM MgCl2 (50/40/10, by vol). […]
# Subsequently, 2.5 ml of human anti-flavivirus antiserum diluted to 1,000-fold with Solution A was added and reacted at room temperature for 1 hour. […] Finally, the plates were reacted with 2.5 ml of a color-developing substrate solution (0.1 M citrate buffer pH 6.0 (2.5 ml), 0.11 M 4-chloro-1-naphthol in CH3CN (50 μl), 0.06 M DEPDA in CH3CN (50 μl), 30% H2O2 (5 μl)), and bound virus particles were detected. […]
compound,measurement,setting,value
"CC(=O)N[C@H]1[C@H](O[C@H]2[C@@H](O)[C@@H](CO)O[C@@H](O[C@H]3[C@H](O)[C@@H](O)C(O)O[C@@H]3CO)[C@@H]2O)O[C@H](CO)[C@@H](O[C@@H]2O[C@H](CO)[C@H](O)[C@H](O)[C@H]2O)[C@@H]1O (stereo partly drawn) [paragloboside saccharide chain, Galβ1-4GlcNAcβ1-3Galβ1-4Glc]",inhibition of infection of K562 cells with dengue virus (FIG. 9),[1],inhibited the infection of K562 cells with dengue virus depending on the concentration
NC(=O)c1ncn([C@@H]2O[C@H](CO)[C@@H](O)[C@H]2O)n1 [ribavirin],adverse effects induced,dengue virus infection,anemia or thrombocytosis
same,preventive effect against dengue virus infection,dengue virus infection,did not show a preventive effect
"Galβ1-3GalNAcβ1-4Galβ1-4Glcβ1-1′Cer [GA1, reference compound]",inhibition of binding of dengue virus to K562 cells (FIG. 5),"[2]; 500 μM, preincubated with virus 2,000 units/ml at 4° C. for 1 hour",could not inhibit
same,effect on binding of dengue virus to the cell surface (FIG. 6),"[3]; negative control, GA1 500 μM",not affected at all
Galβ1-4GlcNAcβ1-3Galβ1-4Glcβ1-1′Cer [paragloboside],inhibition of binding of dengue virus to K562 cells (FIG. 5),"[2]; PG 100, 200 or 500 μM preincubated with virus 2,000 units/ml at 4° C. for 1 hour",inhibited depending on the concentration of PG
same,inhibition of the binding of dengue virus to K562 cells (FIG. 6),"[3]; paragloboside 100, 200 or 500 μM, virus 2,000 units/ml",inhibition of the binding of dengue virus to K562 cells is caused depending on the concentration of paragloboside
Galβ1-4GlcNAcβ1-3Manβ1-4Glcβ1-1Cer [Fraction 15],binding of purified glycolipids to dengue virus on TLC plate (FIG. 8),[4],binds to the virus very strongly
GlcNAcβ1-3Manβ1-4Glcβ1-1Cer [Fraction 13],binding of purified glycolipids to dengue virus on TLC plate (FIG. 8),[4],binds to the virus very strongly
